Measured values as given in patent US20020025303A1, “COSMETIC AND/OR DERMATOLOGICAL COMPOSITION CONTAINING A DERIVATIVE OF METHYLATED SILANOL AND A DERIVATIVE OF HYDROLYSED PLANT PROTEIN” (priority 1997, published 2002).

System: normal human fibroblasts (NHDF 784)
Assay: Synthesis of collagen by human fibroblast cultures (radiolabelled proline incorporation)
Format: cell-based
Conditions: 72 h incubation, 1/40 dilutions of stock preparations, vitamin C 20 μg/ml, FIG. 4
Description: The effect of a composition of the present invention (comprising two anti-glycosylation agents with magnesium ascorbyl phosphate) on the stimulation of the synthesis of collagen and the limitation of the formation of irreversible cross linkages between the collagen fibrils, were evaluated in vitro on human fibroblast cells. […] Glucose was tested in a final concentration of 0.1 percent, which is equivalent to doubling the quantity of 'cold' glucose of the medium. […] They contained free radioactivity and radioactivity incorporated in the soluble cellular and extracellular proteins. […] The proteins of the soluble fraction were then precipitated by 0.3 volume of 10 percent w/v trichloroacetic acid (TCA), and then washed twice with 3 percent TCA (removal of free radioactivity). […] Aliquots were taken to count the incorporated radioactivity in the proteins and a final precipitation was carried out with TCA to separate the material digested by collagenase (collagenic origin) from the collagenase-insensitive material. The incorporated radioactivity was counted by liquid scintillation after cumulation of the soluble/insoluble protein fractions, in an LKB 1211 Rackbeta counter.

Compound	synthesis of collagen (quantity of radiolabelled proline in the neosynthesized collagen)
O=C1O[C@H]([C@@H](O)CO)C([O-])=C1OP(=O)([O-])[O-].O=C1O[C@H]([C@@H](O)CO)C([O-])=C1OP(=O)([O-])[O-].[Mg+2].[Mg+2].[Mg+2] [magnesium ascorbyl phosphate]	significantly increased
O=C1O[C@H]([C@@H](O)CO)C(O)=C1O [vitamin C]	significantly increased
